According to patent US8093290B2, “Coolant solutions and compositions comprising the same” (Givaudan SA, priority 2002, dated 2012):

System: oral cavity
Experiment: observed area of the oral cavity affected by the coolant effect
Settings: in vivo

For CC1CCC(C(C)C)C(OC(=O)C(C)O)C1 (stereo not shown) [Menthyl lactate, menthyl lactate], the “area of the oral cavity targeted by the coolant effect” value was “front/middle of the mouth”.
